Results: patent publication US6514980B1, “Nucleoside analogs in combination therapy of herpes simplex infections” (Novartis International Pharmaceutical Ltd., priority 1996, dated 2003)

Tested on: HSV-1 (SC16)
Experiment: Cutaneous HSV-1 infection of the ear pinna in mice immunosuppressed with Cyclosporin A (second experiment)
Type: in vivo
Conditions: BALB/c mice immunosupressed with Cyclosporin A (second experiment) compared with immunocompetant mice (first experiment); oral antiviral treatment
Description: A cutaneous infection was established by inoculation of the ear pinnae of mice with HSV-1 (SC16) and the effects of oral famciclovir and valaciclovir on the latent virus infection was investigated.
BALB/c female mice (Bantin and Kingman, Kingston, Hull, UK) were purchased at 3 to 4 weeks old and inoculated one week later. Virus suspension (10 ul) containing 5×10^4 p.f.u. were inoculated into the skin of the left ear pinna. Skin thickness was measured daily in individual mice by means of an Engineers' micrometer screw gauge. (ref. Nash et al, 1980, J. Gen. Virol. 48, 351-357). Mice were killed daily and tissues removed for virus assays. Other mice were […]. The trigeminal ganglia and cervical dorsal root ganglia were removed and co-cultivated. Those cultures showing virus replication were recorded as positive.
In a first experiment, groups of immunocompetant mice were untreated (control), antiviral treatment was initiated on days 1, 2, 3, 4 or 5 post-infection (p.i.) and ceased on day 10 p.i.. The compounds were administered ad libitum in the drinking water, at 1 mg/ml (approximately 100 mg/kg/day).
In a second experiment, mice were immunosupressed with Cyclosporin A (CyA) from day-2 to day=10 (day 0 being the day of infection). […]

Row | SMILES | effect on virus replication and disease
1 | CC(=O)OCC(CCn1cnc2cnc(N)nc21)COC(C)=O [famciclovir] | significantly greater effect
2 | CC(C)[C@H](N)C(=O)OCCOCn1cnc2c(=O)[nH]c(N)nc21 [valaciclovir] | significantly greater effect
